For 28 compounds, IC50 results are on record in patent US20260308145A1, “CDK2 INHIBITORS AND METHODS OF USING SAME” (Shenzhen lonova Life Science Co., Ltd., priority 2023, published 2026).

Type in all cases: biochemical
One test deals with T1, CDK1/cyclinB1 (Homo sapiens, UniProt P06493).
T1 construct: purchased Carna Biosciences 04-102
In words: Cyclin-dependent kinase activity assay (continuous ATP coupling assay), CDK1/cyclinB1. The settings on record: CDK1/cyclinB1 10 nM, ATP 200 μM, Histone1 copeptide 100 μM, 15 min preincubation, pH 7.5, 1% DMSO. Here is the method:
(§1) Cyclin-dependent kinase activity assay was measured by continuous ATP coupling assay in which ADP generated by kinase catalyzed phosphorylation was converted back to ATP by consuming phosphoenolpyruvate (PEP) and NADH catalyzed by pyruvate kinase/lactate dehydrogenase (PK/LDH). The assay compositions (see, Table 1) consist of one of the kinases, including CDK1/cyclinB1, CDK2/cyclinE1, CDK4/cyclinD3, and CDK6/cyclinD3 at the designated concentration, ATP at the corresponding Km of the kinase, copeptide and the ATP coupling system of PEP, NADH and PK/LDH. The assay was conducted in a reaction buffer of 20 mM Tris (pH 7.5) with 50 mM NaCl, 0.5 mM DTT and 0.04% BSA, and results were monitored continuously by fluorescence decrease of NADH with excitation at 340 nm and emission at 460 nm. Linear regression of the resulting reaction time traces gave reaction velocities.
(§2) For inhibition assay, compounds were first serial diluted in a 1:3 ratio from 10 μM to 0.05 nM using 10× reaction buffer. One of the CDK kinase was then introduced to compounds solution and incubated for 15 min. Finally, the compositions of ATP coupling system were introduced to the resulting solution to initiate the reaction. The final reaction mixture was in 1× reaction assay buffer with 1% DMSO. The half-maximal inhibition concentrations (IC50) for compounds were determined by fitting the plots of reaction velocity against compound concentration with 4-variable IC50 equation. The inhibition constants (Ki) were determined by fitting the same plots with quadratic/Morrison equation. Data were analyzed using commercially available software Graphpad Prism.
(§3) Exemplary results are presented as calculated IC50 values. • A: IC50≤10 nM • B: IC50>10 nM and IC50<100 nM • C: IC50≥100 nM

In another test the target is T2, CDK2/cyclinE1 (Homo sapiens, UniProt P24941).
T2 construct: purchased Carna Biosciences 04-165
In words: Cyclin-dependent kinase activity assay (continuous ATP coupling assay), CDK2/cyclinE1. To be noted: CDK2/cyclinE1 5 nM, ATP 300 μM, Rb copeptide 100 μM, 15 min preincubation, pH 7.5, 1% DMSO. Here is the method: as §1, §2, §3

A further test deals with T3, CDK4/cyclinD3 (Homo sapiens, UniProt P11802).
T3 construct: purchased Carna Biosciences 04-105
Put plainly: Cyclin-dependent kinase activity assay (continuous ATP coupling assay), CDK4/cyclinD3. To be noted: CDK4/cyclinD3 60 nM, ATP 500 μM, Rb copeptide 500 μM, 15 min preincubation, pH 7.5, 1% DMSO. Here is the method: as §1, §2, §3

For another test, the target named is T4, CDK6/cyclinD3 (Homo sapiens, UniProt Q00534).
T4 construct: purchased Carna Biosciences 04-107
Put plainly: Cyclin-dependent kinase activity assay (continuous ATP coupling assay), CDK6/cyclinD3. To be noted: CDK6/cyclinD3 25 nM, ATP 500 μM, Rb copeptide 500 μM, 15 min preincubation, pH 7.5, 1% DMSO. Here is the method: as §1, §2, §3

T3 sequence (P11802 whole entry): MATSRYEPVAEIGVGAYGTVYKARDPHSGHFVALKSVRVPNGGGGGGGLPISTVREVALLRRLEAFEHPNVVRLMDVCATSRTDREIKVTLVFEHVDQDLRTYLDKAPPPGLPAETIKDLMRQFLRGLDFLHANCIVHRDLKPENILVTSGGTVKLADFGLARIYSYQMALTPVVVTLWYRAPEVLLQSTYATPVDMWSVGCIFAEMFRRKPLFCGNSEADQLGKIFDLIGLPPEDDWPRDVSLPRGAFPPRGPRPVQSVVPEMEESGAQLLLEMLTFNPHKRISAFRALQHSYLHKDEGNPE
T3 sequence (P30281 whole entry partner): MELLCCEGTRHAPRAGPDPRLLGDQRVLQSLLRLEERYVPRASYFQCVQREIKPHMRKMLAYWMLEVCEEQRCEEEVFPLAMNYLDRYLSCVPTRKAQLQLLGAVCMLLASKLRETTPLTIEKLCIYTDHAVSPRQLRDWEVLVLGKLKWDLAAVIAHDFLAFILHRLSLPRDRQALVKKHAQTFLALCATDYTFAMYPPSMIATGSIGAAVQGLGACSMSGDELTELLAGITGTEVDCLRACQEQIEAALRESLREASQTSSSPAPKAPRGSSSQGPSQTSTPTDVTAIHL
T1 sequence (P06493 whole entry): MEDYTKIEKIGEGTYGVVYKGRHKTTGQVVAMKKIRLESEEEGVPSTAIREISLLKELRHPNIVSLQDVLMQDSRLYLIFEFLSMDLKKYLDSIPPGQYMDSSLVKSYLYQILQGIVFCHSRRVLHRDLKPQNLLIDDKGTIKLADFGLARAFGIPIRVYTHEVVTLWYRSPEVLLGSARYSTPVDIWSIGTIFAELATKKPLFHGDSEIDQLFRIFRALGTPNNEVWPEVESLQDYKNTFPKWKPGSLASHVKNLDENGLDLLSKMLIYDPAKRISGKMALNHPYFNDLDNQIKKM
T1 sequence (P14635 whole entry partner): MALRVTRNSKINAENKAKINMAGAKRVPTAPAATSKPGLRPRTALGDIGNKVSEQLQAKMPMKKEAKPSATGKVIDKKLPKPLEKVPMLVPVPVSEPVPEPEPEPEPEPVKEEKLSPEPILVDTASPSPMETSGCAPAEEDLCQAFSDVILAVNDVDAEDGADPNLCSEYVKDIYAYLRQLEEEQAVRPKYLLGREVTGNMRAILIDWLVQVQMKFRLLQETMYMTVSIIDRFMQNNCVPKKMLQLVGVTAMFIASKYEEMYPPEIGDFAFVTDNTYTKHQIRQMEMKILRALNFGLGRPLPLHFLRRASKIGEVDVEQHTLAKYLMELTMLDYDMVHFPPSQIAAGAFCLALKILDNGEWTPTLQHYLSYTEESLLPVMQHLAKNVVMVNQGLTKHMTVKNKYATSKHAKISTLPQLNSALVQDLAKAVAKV
T4 sequence (Q00534 whole entry): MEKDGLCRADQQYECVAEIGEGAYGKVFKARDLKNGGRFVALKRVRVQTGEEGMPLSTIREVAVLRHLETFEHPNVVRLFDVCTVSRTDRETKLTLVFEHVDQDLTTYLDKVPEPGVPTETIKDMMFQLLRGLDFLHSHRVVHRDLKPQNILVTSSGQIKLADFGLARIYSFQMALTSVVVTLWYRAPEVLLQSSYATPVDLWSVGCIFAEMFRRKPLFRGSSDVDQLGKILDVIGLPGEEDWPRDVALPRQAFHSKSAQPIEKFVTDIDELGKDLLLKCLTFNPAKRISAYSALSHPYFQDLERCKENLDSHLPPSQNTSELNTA
T4 sequence (P30281 whole entry partner): as the sequence (P30281 whole entry partner) above

By IC50 is commonly meant the concentration that gives 50% inhibition. Consider `CNS(=O)(=O)c1ccc(Nc2ncc(C(F)(F)F)c(-n3cc(C4CCOC4)cn3)n2)cc1` (single isomer, unassigned) [Example 89], for which the IC50 at CDK1/cyclinB1 is not below 100 nM; against CDK2/cyclinE1 it was not above 10 nM; against CDK4/cyclinD3 it was 10 to 100 nM; at CDK6/cyclinD3 it was 10 to 100 nM.
For `CN(C)CCNS(=O)(=O)c1ccc(Nc2ncc(C(F)(F)F)c(-n3cccn3)n2)cc1` [Example 43], the IC50 on CDK1/cyclinB1 was 10 to 100 nM; against CDK2/cyclinE1, not above 10 nM; at CDK4/cyclinD3, 10 to 100 nM; against CDK6/cyclinD3 it was 10 to 100 nM.
As for `Cc1cc(Nc2ncc(C(F)(F)F)c(-n3cccn3)n2)ccc1S(=O)(=O)NCCO` [Example 125], the concentration for half-maximal inhibition (IC50) at CDK1/cyclinB1 is not below 100 nM; against CDK2/cyclinE1 it was 10 to 100 nM; against CDK4/cyclinD3 it was not below 100 nM; on CDK6/cyclinD3, not below 100 nM.
On to `O=S(=O)(NCCO)c1ccc(Nc2ncc(C(F)(F)F)c(-n3cccn3)n2)nc1` [Example 137], for which the half-inhibitory concentration (IC50) on CDK1/cyclinB1, against CDK2/cyclinE1, on CDK4/cyclinD3 and against CDK6/cyclinD3 was not below 100 nM in each case.
In the case of `CS(=O)(=O)Nc1cccc(Nc2ncc(C(F)(F)F)c(-n3cccn3)n2)c1` [Example 121], the IC50 is not below 100 nM against CDK1/cyclinB1, 10 to 100 nM at CDK2/cyclinE1, not below 100 nM on CDK4/cyclinD3 and not below 100 nM against CDK6/cyclinD3.
Regarding `CNS(=O)(=O)c1ccc(Nc2ncc(Br)c(-n3cc(CC(C)(C)O)cn3)n2)cc1` [Example 68], the IC50 against CDK1/cyclinB1 is 10 to 100 nM; on CDK2/cyclinE1, not above 10 nM; at CDK4/cyclinD3, 10 to 100 nM; at CDK6/cyclinD3, 10 to 100 nM.
As for `CN1CCC(NS(=O)(=O)c2ccc(Nc3ncc(C(F)(F)F)c(-n4cccn4)n3)cc2)CC1` [Example 35], the IC50 at CDK1/cyclinB1 is not below 100 nM; against CDK2/cyclinE1 it was not above 10 nM; against CDK4/cyclinD3 it was 10 to 100 nM; against CDK6/cyclinD3, not below 100 nM.
`CNS(=O)(=O)c1ccc(Nc2ncc(C(F)(F)F)c(-n3cc(N4CCCC4)cn3)n2)cc1` [Example 87, N-methyl-4-[[4-(4-pyrrolidin-1-ylpyrazol-1-yl)-5-(trifluoromethyl)pyrimidin-2-yl]amino]benzene sulfonamide]: the half-maximal inhibitory concentration (IC50) against CDK1/cyclinB1 was not below 100 nM; against CDK2/cyclinE1, 10 to 100 nM; on CDK4/cyclinD3 it was not below 100 nM; against CDK6/cyclinD3, not below 100 nM.
`CNS(=O)(=O)c1ccc(Nc2ncc(C(F)(F)F)c(-n3cc(C(C)(C)C#N)cn3)n2)cc1` [Example 49, 4-[[4-[4-(1-cyano-1-methyl-ethyl)pyrazol-1-yl]-5-(trifluoromethyl)pyrimidin-2-yl]amino]-N-methyl-benzene sulfonamide]: the 50% inhibitory concentration (IC50) against CDK1/cyclinB1, at CDK2/cyclinE1, against CDK4/cyclinD3 and at CDK6/cyclinD3 was 10 to 100 nM in each case.
`CC(C)(O)Cc1cnn(-c2nc(Nc3ccc(S(N)(=O)=O)cc3)ncc2C(F)(F)F)c1` [Example 71]: the IC50 against CDK1/cyclinB1 is 10 to 100 nM; against CDK2/cyclinE1, not above 10 nM; against CDK4/cyclinD3, not above 10 nM; against CDK6/cyclinD3, 10 to 100 nM.
Turning to `CC(C)(O)CNS(=O)(=O)c1ccc(Nc2ncc(C(F)(F)F)c(-n3cccn3)n2)cc1` [Example 111], the IC50 is not below 100 nM on CDK1/cyclinB1, not above 10 nM on CDK2/cyclinE1, not below 100 nM against CDK4/cyclinD3 and not below 100 nM on CDK6/cyclinD3.
Take `CNS(=O)(=O)c1ccc(Nc2ncc(C(F)(F)F)c(-n3cc([C@H]4CCCN4)cn3)n2)cc1` [Example 91, (R)—N-methyl-4-((4-(4-(pyrrolidin-2-yl)-1H-pyrazol-1-yl)-5-(trifluoromethyl)pyrimidin-2-yl)amino)benzenesulfonamide]: the concentration for half-maximal inhibition (IC50) against CDK1/cyclinB1 is 10 to 100 nM; against CDK2/cyclinE1, not above 10 nM; against CDK4/cyclinD3, 10 to 100 nM; on CDK6/cyclinD3, 10 to 100 nM.
Take `CC1(Nc2ncc(C(F)(F)F)c(-n3cccn3)n2)CCN(S(C)(=O)=O)CC1` [Example 29]: the half-inhibitory concentration (IC50) against CDK1/cyclinB1, against CDK2/cyclinE1, at CDK4/cyclinD3 and against CDK6/cyclinD3 was not below 100 nM in each case.
As for `CNS(=O)(=O)c1ccc(Nc2ncc(C(F)(F)F)c(-n3cccn3)n2)c(F)c1` [Example 27], the IC50 against CDK1/cyclinB1, against CDK2/cyclinE1, at CDK4/cyclinD3 and against CDK6/cyclinD3 was not below 100 nM throughout.
Consider `NS(=O)(=O)c1ccc(Nc2ncc(C(F)(F)F)c(-n3cccn3)n2)cc1` [Example 18], for which the half-maximal inhibitory concentration (IC50) at CDK1/cyclinB1 was not below 100 nM; against CDK2/cyclinE1, not above 10 nM; against CDK4/cyclinD3, not below 100 nM; against CDK6/cyclinD3, not below 100 nM.
For `O=S(=O)(NCC1(CO)CC1)c1ccc(Nc2ncc(C(F)(F)F)c(-n3cccn3)n2)cc1` [Example 132], the 50% inhibitory concentration (IC50) was not below 100 nM against CDK1/cyclinB1, 10 to 100 nM at CDK2/cyclinE1, not below 100 nM at CDK4/cyclinD3 and not below 100 nM against CDK6/cyclinD3.
`FC(F)(F)c1cnc(Nc2ccc(S(F)(F)(F)(F)F)cc2)nc1-n1cccn1` [Example 34]: the IC50 at CDK1/cyclinB1, against CDK2/cyclinE1, on CDK4/cyclinD3 and against CDK6/cyclinD3 was not below 100 nM in each case.
Regarding `[2H]C([2H])([2H])NS(=O)(=O)c1ccc(Nc2ncc(C(F)(F)F)c(-n3cc(CCO)cn3)n2)cc1` [Example 10], the 50% inhibitory concentration (IC50) against CDK1/cyclinB1 is 10 to 100 nM; on CDK2/cyclinE1 it was not above 10 nM; against CDK4/cyclinD3, 10 to 100 nM; at CDK6/cyclinD3, 10 to 100 nM.
With `CNS(=O)(=O)c1cccc(Nc2ncc(C(F)(F)F)c(-n3cccn3)n2)c1` [Example 122], the IC50 against CDK1/cyclinB1, on CDK2/cyclinE1, against CDK4/cyclinD3 and on CDK6/cyclinD3 was not below 100 nM each time.
For `CNS(=O)(=O)c1ccc(Nc2ncc(C(F)(F)F)c(-n3cc(C4CCN(C)C4)cn3)n2)cc1` (single isomer, unassigned) [Example 95], the IC50 at CDK1/cyclinB1 is 10 to 100 nM; against CDK2/cyclinE1 it was not above 10 nM; on CDK4/cyclinD3 it was 10 to 100 nM; at CDK6/cyclinD3 it was not below 100 nM.
Regarding `CC(C)(O)Cc1cnn(-c2nc(NC3CCN(S(C)(=O)=O)CC3)ncc2C(F)(F)F)c1` [Example 7], the half-maximal inhibitory concentration (IC50) on CDK1/cyclinB1 was 10 to 100 nM; on CDK2/cyclinE1, not above 10 nM; on CDK4/cyclinD3 it was 10 to 100 nM; on CDK6/cyclinD3, 10 to 100 nM.
With `CNS(=O)(=O)c1ccc(Nc2ncc(C(F)(F)F)c(-n3cc([C@H]4C[C@@](C)(O)C4)cn3)n2)cc1` (single isomer, unassigned) [Example 105, 4-((4-(4-((1r,3r)-3-hydroxy-3-methylcyclobutyl)-1H-pyrazol-1-yl)-5-(trifluoromethyl)pyrimidin-2-yl)amino)-N-methylbenzenesulfonamide], the 50% inhibitory concentration (IC50) against CDK1/cyclinB1, at CDK2/cyclinE1, at CDK4/cyclinD3 and against CDK6/cyclinD3 was 10 to 100 nM in each case.
With `O=S(=O)(NCCOC(F)(F)F)c1ccc(Nc2ncc(C(F)(F)F)c(-n3cccn3)n2)cc1` [Example 128], the IC50 on CDK1/cyclinB1, at CDK2/cyclinE1, at CDK4/cyclinD3 and against CDK6/cyclinD3 was not below 100 nM in each case.
On to `O=S(=O)(NCCO)c1ccc(Nc2ncc(F)c(-n3cccn3)n2)cc1` [Example 115], for which the IC50 at CDK1/cyclinB1 was not below 100 nM; on CDK2/cyclinE1 it was 10 to 100 nM; against CDK4/cyclinD3, not below 100 nM; at CDK6/cyclinD3, not below 100 nM.
`CC(O)Cc1cnn(-c2nc(NC3CCN(S(C)(=O)=O)CC3)ncc2C(F)(F)F)c1` (single isomer, unassigned) [Example 107]: the IC50 against CDK1/cyclinB1 is 10 to 100 nM; at CDK2/cyclinE1, not above 10 nM; on CDK4/cyclinD3, 10 to 100 nM; at CDK6/cyclinD3 it was 10 to 100 nM.
As to `CN1CCC(N2CCN(c3ccc(Nc4ncc(C(F)(F)F)c(-n5cccn5)n4)cc3)CC2)CC1` [Example 33], the IC50 against CDK1/cyclinB1, against CDK2/cyclinE1, at CDK4/cyclinD3 and against CDK6/cyclinD3 was not below 100 nM throughout.
In the case of `CC(C)(O)Cc1cnn(-c2nc(Nc3ccc(S(=O)(=O)NC4CC4)cc3)ncc2C(F)(F)F)c1` [Example 73], the concentration for half-maximal inhibition (IC50) on CDK1/cyclinB1 was not below 100 nM; against CDK2/cyclinE1, 10 to 100 nM; against CDK4/cyclinD3, 10 to 100 nM; against CDK6/cyclinD3, 10 to 100 nM.
Turning to `CC(C)(CO)NS(=O)(=O)c1ccc(Nc2ncc(C(F)(F)F)c(-n3cccn3)n2)cc1` [Example 134], the half-maximal inhibitory concentration (IC50) at CDK1/cyclinB1 was not below 100 nM; against CDK2/cyclinE1, not above 10 nM; against CDK4/cyclinD3, not below 100 nM; against CDK6/cyclinD3 it was not below 100 nM.
